Structures are written as SMILES. pKd: −log10 of the molar value. Active and inactive are the calls of the source. Some results are limits rather than exact numbers.

For experiment [1], the target named is ALK tyrosine kinase receptor (Homo sapiens, UniProt Q9UM73). The experiment is classed as subcellular, K-562, COLO 205, SK-N-BE(2) and MV-4-11, Cell lysate. To be noted: read-out: Kd apparent.
The target of experiment [2] is T1, Cyclin-dependent kinase-like 5 (Homo sapiens, UniProt O76039).
T1 sequence (O76039 whole entry): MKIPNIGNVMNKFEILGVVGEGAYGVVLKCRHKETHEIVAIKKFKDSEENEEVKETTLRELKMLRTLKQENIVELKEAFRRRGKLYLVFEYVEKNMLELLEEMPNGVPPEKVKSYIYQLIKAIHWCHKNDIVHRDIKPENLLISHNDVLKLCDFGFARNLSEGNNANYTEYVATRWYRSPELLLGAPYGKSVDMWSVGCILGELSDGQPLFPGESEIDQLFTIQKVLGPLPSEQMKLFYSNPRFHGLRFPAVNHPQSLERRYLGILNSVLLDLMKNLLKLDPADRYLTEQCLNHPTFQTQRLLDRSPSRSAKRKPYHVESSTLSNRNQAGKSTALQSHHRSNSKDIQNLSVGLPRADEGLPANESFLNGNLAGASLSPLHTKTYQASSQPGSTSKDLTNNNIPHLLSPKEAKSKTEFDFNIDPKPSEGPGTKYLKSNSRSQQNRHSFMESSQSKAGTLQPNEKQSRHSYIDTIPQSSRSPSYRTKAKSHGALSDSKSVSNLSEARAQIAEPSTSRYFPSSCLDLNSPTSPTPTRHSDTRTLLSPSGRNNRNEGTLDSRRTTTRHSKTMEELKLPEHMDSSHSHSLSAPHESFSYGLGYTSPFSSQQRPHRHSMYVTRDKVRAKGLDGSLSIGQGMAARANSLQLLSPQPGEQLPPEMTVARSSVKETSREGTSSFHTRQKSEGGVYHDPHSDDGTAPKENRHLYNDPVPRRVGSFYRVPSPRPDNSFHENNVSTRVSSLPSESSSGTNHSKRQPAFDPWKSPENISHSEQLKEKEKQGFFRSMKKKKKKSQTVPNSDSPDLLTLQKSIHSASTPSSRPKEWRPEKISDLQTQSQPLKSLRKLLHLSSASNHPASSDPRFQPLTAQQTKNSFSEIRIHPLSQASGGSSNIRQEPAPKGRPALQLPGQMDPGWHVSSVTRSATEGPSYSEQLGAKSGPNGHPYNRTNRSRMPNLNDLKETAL

Experiment [3] has as its target Dual specificity mitogen-activated protein kinase kinase 1 (Homo sapiens, UniProt Q02750).
The target in experiment [4] is T2, Tyrosine-protein kinase Mer (Homo sapiens, UniProt Q12866).
T2 sequence (Q12866 whole entry): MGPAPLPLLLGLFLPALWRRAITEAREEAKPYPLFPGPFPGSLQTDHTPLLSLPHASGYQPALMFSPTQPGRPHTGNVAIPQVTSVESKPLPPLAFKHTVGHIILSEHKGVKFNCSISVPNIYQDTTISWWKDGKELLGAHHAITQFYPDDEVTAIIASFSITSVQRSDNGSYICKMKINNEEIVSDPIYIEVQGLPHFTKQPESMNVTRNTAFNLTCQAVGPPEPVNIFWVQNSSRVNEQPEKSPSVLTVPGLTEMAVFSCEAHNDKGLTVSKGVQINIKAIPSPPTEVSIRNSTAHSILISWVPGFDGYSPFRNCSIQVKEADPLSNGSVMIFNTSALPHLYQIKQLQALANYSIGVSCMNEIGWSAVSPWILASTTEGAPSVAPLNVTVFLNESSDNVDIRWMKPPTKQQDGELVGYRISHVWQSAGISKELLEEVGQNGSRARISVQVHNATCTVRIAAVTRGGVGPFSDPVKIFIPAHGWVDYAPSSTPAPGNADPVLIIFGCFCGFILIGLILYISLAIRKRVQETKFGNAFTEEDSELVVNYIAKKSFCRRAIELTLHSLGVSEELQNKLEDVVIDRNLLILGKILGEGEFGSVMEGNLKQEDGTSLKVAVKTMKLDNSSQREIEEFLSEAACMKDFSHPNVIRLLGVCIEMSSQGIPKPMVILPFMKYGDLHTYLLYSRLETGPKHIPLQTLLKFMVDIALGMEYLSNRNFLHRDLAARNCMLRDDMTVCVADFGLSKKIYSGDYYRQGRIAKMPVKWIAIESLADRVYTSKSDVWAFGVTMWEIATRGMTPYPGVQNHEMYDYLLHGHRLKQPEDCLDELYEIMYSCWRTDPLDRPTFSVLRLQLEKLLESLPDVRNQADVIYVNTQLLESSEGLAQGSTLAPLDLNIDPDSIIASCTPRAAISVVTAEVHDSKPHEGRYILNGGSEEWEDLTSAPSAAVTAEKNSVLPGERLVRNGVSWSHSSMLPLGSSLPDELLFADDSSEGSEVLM

Another experiment has as its target Misshapen-like kinase 1 (Homo sapiens, UniProt Q8N4C8).
Experiment [5] deals with Serine/threonine-protein kinase 38-like (Homo sapiens, UniProt Q9Y2H1).
Chain of Serine/threonine-protein kinase 38-like (Q9Y2H1 whole entry): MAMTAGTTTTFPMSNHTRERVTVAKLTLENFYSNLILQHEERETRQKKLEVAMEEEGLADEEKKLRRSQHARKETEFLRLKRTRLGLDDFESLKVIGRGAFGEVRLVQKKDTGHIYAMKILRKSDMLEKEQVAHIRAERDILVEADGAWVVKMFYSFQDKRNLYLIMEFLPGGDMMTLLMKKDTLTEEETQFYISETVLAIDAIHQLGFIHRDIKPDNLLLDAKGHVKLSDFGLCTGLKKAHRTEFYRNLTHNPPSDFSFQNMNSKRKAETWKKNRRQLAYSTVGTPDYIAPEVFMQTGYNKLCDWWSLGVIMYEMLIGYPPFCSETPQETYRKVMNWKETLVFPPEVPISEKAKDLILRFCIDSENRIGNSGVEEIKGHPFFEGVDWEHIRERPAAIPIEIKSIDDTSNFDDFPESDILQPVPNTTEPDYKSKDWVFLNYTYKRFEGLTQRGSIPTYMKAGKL
For experiment [6], the target named is Cyclin-dependent kinase 10 (Homo sapiens, UniProt Q15131).
The target of experiment [7] is T3, Dual specificity mitogen-activated protein kinase kinase 4 (Homo sapiens, UniProt P45985).
T3 sequence (P45985 whole entry): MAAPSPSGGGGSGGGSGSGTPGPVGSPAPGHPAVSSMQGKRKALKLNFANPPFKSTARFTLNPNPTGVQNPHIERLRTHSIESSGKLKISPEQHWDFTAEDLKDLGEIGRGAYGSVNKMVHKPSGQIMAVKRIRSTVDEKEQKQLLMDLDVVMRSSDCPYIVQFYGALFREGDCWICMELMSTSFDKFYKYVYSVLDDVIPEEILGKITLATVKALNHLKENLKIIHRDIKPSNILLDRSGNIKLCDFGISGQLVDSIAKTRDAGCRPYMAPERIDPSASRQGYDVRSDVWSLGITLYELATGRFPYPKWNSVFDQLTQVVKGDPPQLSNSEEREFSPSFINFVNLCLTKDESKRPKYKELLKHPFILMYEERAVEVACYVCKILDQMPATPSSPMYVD

In experiment [8] the target is Serine/threonine-protein kinase PLK1 (Homo sapiens, UniProt P53350).
Chain of Serine/threonine-protein kinase PLK1 (P53350 whole entry): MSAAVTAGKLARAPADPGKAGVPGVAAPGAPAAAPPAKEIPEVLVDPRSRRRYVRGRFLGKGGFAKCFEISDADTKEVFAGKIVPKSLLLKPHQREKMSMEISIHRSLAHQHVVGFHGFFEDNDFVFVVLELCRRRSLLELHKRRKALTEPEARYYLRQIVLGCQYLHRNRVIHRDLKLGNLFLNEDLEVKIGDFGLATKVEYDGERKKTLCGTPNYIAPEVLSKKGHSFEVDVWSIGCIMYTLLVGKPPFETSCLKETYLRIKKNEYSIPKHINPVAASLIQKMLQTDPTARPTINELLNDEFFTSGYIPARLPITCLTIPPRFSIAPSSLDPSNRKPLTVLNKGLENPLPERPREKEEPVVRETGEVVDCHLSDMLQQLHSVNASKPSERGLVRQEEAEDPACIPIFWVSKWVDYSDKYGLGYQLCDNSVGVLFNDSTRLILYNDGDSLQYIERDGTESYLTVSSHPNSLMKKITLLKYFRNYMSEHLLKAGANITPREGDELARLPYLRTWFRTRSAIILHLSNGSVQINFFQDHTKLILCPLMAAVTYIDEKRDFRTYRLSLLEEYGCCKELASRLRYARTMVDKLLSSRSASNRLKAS
Experiment [9] deals with Serine/threonine-protein kinase 38 (Homo sapiens, UniProt Q15208).
Chain of Serine/threonine-protein kinase 38 (Q15208 whole entry): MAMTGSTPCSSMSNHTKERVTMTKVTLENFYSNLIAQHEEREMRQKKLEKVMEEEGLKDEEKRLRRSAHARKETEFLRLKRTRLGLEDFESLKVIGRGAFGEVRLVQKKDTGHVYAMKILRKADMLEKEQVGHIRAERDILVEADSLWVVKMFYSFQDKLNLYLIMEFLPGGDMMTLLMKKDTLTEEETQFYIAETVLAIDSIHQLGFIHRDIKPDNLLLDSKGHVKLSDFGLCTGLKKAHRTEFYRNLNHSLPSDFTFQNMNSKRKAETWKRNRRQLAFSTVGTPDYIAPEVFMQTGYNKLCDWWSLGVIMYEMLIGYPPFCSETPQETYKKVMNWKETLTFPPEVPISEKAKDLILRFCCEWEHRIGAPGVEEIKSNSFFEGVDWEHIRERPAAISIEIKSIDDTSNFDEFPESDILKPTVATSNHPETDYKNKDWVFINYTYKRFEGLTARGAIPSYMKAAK
In experiment [10] the target is Ras-related C3 botulinum toxin substrate 1 (Homo sapiens, UniProt P63000).
Experiment [11] has as its target Tyrosine-protein kinase Fgr (Homo sapiens, UniProt P09769).
Experiment [12] has as its target Eukaryotic peptide chain release factor GTP-binding subunit ERF3B (Homo sapiens, UniProt Q8IYD1).
Also: in the data inactive means no Kd found up to 30 µM.

Chain of ALK tyrosine kinase receptor (Q9UM73 whole entry): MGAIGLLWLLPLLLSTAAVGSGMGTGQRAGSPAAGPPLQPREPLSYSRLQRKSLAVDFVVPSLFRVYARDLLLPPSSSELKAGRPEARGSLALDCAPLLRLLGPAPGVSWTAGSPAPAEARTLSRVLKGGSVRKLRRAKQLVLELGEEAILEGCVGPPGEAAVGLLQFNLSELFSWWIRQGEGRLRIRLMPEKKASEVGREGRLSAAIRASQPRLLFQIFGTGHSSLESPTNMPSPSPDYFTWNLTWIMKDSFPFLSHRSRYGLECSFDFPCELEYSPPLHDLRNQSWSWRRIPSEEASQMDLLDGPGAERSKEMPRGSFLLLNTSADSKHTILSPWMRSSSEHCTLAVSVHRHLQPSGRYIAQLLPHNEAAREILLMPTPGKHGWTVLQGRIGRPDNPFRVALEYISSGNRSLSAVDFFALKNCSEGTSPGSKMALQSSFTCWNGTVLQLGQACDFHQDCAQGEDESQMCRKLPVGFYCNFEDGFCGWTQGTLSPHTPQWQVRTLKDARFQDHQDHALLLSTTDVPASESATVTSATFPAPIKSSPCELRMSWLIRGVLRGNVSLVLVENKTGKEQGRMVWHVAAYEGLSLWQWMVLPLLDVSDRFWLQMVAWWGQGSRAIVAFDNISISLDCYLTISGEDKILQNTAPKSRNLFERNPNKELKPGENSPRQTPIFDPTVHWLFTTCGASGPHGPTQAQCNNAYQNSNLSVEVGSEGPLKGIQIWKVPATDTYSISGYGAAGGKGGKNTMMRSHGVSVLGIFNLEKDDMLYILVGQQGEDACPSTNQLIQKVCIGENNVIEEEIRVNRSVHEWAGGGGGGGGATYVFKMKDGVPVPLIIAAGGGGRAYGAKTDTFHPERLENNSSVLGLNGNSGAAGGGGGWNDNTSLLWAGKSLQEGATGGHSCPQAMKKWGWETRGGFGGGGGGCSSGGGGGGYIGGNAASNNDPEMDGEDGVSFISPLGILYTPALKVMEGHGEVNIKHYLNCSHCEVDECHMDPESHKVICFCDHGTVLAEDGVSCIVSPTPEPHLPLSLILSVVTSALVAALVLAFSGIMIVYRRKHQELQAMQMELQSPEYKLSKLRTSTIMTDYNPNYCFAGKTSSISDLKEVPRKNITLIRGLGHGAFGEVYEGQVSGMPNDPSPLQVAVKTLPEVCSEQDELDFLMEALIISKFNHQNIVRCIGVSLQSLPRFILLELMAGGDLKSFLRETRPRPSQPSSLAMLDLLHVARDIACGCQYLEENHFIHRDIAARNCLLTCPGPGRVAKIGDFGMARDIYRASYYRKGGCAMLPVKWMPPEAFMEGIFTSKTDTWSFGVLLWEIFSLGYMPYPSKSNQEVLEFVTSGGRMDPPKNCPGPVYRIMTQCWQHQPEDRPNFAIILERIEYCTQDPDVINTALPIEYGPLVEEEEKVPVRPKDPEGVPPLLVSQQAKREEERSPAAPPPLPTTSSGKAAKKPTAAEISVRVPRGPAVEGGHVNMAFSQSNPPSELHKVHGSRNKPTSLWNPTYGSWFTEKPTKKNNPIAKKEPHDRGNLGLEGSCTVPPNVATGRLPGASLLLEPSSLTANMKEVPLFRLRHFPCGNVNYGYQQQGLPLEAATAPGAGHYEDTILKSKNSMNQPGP
Chain of Dual specificity mitogen-activated protein kinase kinase 1 (Q02750 whole entry): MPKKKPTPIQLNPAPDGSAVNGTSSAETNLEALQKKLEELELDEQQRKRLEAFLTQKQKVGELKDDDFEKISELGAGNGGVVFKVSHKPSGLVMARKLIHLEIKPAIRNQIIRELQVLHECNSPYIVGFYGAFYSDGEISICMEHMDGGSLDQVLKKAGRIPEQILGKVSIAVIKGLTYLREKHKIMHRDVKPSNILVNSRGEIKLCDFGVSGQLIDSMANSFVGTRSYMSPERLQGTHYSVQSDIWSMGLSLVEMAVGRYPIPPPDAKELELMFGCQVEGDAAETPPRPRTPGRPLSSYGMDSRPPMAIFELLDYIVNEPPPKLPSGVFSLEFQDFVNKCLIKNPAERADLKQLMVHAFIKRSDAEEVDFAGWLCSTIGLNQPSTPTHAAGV
Chain of Misshapen-like kinase 1 (Q8N4C8 whole entry): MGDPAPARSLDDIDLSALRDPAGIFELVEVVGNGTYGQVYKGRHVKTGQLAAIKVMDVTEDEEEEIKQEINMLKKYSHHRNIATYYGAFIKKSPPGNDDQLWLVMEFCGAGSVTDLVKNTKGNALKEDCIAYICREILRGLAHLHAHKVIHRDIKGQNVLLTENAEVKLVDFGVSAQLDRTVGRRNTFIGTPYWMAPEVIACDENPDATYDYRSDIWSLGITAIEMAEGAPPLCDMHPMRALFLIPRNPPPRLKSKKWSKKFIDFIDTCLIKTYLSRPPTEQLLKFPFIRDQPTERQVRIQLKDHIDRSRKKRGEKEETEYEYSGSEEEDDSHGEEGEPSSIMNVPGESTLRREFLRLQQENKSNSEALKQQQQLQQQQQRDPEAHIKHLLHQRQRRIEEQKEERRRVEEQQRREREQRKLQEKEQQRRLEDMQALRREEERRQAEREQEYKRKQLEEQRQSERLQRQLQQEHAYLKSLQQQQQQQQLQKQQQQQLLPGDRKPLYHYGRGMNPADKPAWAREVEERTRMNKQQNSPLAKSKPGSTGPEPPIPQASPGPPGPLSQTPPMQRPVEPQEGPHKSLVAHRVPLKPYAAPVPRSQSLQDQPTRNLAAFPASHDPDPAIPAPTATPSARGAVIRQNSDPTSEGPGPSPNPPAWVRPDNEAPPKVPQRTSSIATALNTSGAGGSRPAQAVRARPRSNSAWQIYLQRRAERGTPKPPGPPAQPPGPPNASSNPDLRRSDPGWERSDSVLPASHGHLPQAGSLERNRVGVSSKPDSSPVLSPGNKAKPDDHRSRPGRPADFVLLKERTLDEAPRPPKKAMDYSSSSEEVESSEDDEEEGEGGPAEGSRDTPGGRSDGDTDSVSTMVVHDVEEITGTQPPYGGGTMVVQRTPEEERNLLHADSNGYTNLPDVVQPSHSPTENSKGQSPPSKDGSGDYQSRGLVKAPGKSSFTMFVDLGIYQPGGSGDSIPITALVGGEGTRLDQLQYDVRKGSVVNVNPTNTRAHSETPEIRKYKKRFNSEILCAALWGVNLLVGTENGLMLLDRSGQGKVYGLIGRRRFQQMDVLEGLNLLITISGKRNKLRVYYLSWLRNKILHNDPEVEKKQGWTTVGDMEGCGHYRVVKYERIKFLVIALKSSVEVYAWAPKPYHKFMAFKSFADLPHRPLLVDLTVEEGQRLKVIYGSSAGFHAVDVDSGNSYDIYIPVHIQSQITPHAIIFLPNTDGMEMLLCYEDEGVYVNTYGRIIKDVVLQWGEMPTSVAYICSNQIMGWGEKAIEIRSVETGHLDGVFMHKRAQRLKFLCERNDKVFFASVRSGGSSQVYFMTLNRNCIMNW

As for `O[C@H]1CC[C@H](Nc2ncc3nc(Nc4c(F)cc(F)cc4F)n([C@H]4CCOC4)c3n2)CC1` [TANZISERTIB], the Kd (in experiment [1]; in [2]; in experiment [3]; in experiment [4]; on Misshapen-like kinase 1; in experiment [5]) was > 30 µM (inactive) each time.

For the compound `COc1cc2ncnc(Nc3ccc(O)cc3)c2cc1OC` [WHI-P131], the Kd in experiment [1], in [6], in experiment [2], in [3], in [7] and in experiment [8] was > 30 µM (inactive) each time. The Kd in experiment [9] was > 30 µM (inactive).

Consider `CN1CCN(c2nc(C3=C(c4c[nH]c5ccccc45)C(=O)NC3=O)c3ccccc3n2)CC1` [SOTRASTAURIN], for which the Kd in experiment [1] is > 30 µM (inactive); in experiment [6], > 30 µM (inactive); in experiment [2], > 30 µM (inactive); in experiment [3] it was > 30 µM (inactive); in [4] it was > 30 µM (inactive); on Misshapen-like kinase 1 it was 0.041 µM (active). For the same compound, the Kd in experiment [10] and in experiment [5] was > 30 µM (inactive) in each case.

Take `C[C@@H]1COC(Nc2ccc3ncnc(Nc4ccc(OCc5nccs5)c(Cl)c4)c3c2)=N1` [VARLITINIB]: the Kd (in experiment [1]; in [2]; in experiment [3]; in [7]; in experiment [4]; at Misshapen-like kinase 1) was > 30 µM (inactive) each time. Besides, the Kd in [9] and in [5] was > 30 µM (inactive) each time.

As to `NC(=O)c1ccc(N(C(N)=O)c2c(F)cccc2F)nc1-c1ccc(F)cc1F` [VX-702], the negative-log Kd (pKd) in experiment [1] is 8.70. Moreover, the Kd in experiment [2], in experiment [3], in [7], in experiment [8], in experiment [9] and in experiment [5] was > 30 µM (inactive) in each case.

For `Cn1cc(-c2[nH]c3cc(NC(=O)[C@H](N)C4CCCCC4)cc4c3c2C=NNC4=O)cn1`, the Kd in experiment [1], in [6], in experiment [2], in experiment [11], in [3] and in experiment [8] was > 30 µM (inactive) in each case. Moreover, the Kd in experiment [5] is > 30 µM (inactive). For the same compound, the pKd in [4] is 7.74; at Misshapen-like kinase 1, 7.70.

As to `FC(F)(F)c1ccc(CNc2ccc(Cc3c[nH]c4ncc(Cl)cc34)cn2)cn1` [PEXIDARTINIB], the Kd in experiment [1], in experiment [3], in experiment [4] and in experiment [5] was > 30 µM (inactive) each time.

With `CCc1nc(C(N)=O)c(Nc2ccc(N3CCC(N4CCN(C)CC4)CC3)c(OC)c2)nc1NC1CCOCC1` [GILTERITINIB], the Kd in experiment [2], in experiment [10] and in experiment [9] was > 30 µM (inactive) each time.

As for `NC[C@@](O)(c1ccc(Cl)cc1)c1ccc(-c2cn[nH]c2)cc1` [AT-13148], the Kd (in experiment [11]; in experiment [12]; in [3]; at Misshapen-like kinase 1; in experiment [10]; in experiment [9]) was > 30 µM (inactive) in each case.

For the compound `COc1cc(F)c(F)c(Nc2ccc(I)cc2F)c1NS(=O)(=O)C1(C[C@H](O)CO)CC1` [REFAMETINIB], the Kd (in [2]; at Misshapen-like kinase 1; in experiment [10]; in experiment [9]; in [5]) was > 30 µM (inactive) in each case.

With `O=S(=O)(c1cccc2cnccc12)N1CCCNCC1` [FASUDIL], the Kd in experiment [11], in experiment [12] and in experiment [10] was > 30 µM (inactive) in each case.

For the compound `COc1cc2nccc(Oc3ccc(NC(=O)C4(C(=O)Nc5ccc(F)cc5)CC4)cc3)c2cc1OC` [CABOZANTINIB], the Kd in [1], in experiment [12], in experiment [3] and in experiment [8] was > 30 µM (inactive) each time.

`Cc1c(Cn2c(C)nc3c(C(=O)O)cc(N4CCOCC4)cc32)cccc1C(F)(F)F` [GSK-2636771]: the Kd in experiment [6], in experiment [3], in [7] and in experiment [10] was > 30 µM (inactive) in each case.

For `CNC(=O)c1cc(COc2nnc(Nc3ccc(Cl)cc3)c3ccoc23)ccn1` [TELATINIB], the Kd (in [1]; in experiment [6]; in experiment [3]; at Misshapen-like kinase 1) was > 30 µM (inactive) throughout.

Consider `O=C(NC[C@H](O)CO)c1ccncc1Nc1ccc(I)cc1F` [PIMASERTIB], for which the Kd in experiment [1], in experiment [6], in experiment [2], in experiment [11], in [12] and in experiment [7] was > 30 µM (inactive) each time. Further, the Kd (on Misshapen-like kinase 1; in [8]) was > 30 µM (inactive) each time.

Usually pKd stands for the Kd on a negative log10 scale, so that one unit is a factor of ten.
